Results reported in patent publication US12091405B2, “Substituted pyrazole compounds as indoleamine 2,3-dioxygenase inhibitors” (Merck Sharp & Dohme LLC, priority 2018, dated 2024).

molecular target: IDO1 (Homo sapiens, UniProt P14902); test: IDO1 Cellular Assay in HeLa Cells Stimulated with IFNγ; format: cell-based; conditions: IFNγ 100 ng/mL, 300 uM L-tryptophan, about 48 hours, fluorescence readout, read-out: IDO1 HELA Cell Assay, IC50
Description: Biological Assays IDO1 Cellular Assay in HeLa Cells Stimulated with IFNγ
HeLa cells were cultured in complete HeLa culture medium (90% EMEM, 10% heat-inactivated fetal bovine serum) and expanded to about 1×10^9 cells. The cells were then collected and frozen down at 1×10^7 cells/vial in 1 mL frozen medium (90% complete HeLa culture medium, 10% DMSO).
Compounds to be tested were serially diluted in ten 3-fold steps in DMSO starting from 10 mM DMSO stocks in Echo low volume plate(s). Compound dilutions or DMSO alone were then dispensed from the dilution plate(s) into Greiner black 384-well assay plate(s) (catalog #781086, 50 nL/well) using an Echo 550 acoustic liquid handler (Labcyte).
Frozen HeLa cells were thawed and transferred into HeLa assay medium (99% complete HeLa culture medium, 1% Pen/Strep) with 20 mL medium/vial of cells. The cells were spun down at 250 g in a table top centrifuge for 5 min and suspended in same volume of HeLa assay medium. The cells were then counted and adjusted to a density of 2×10^5 cells/mL in HeLa assay medium. Sterile L-tryptophan were added to the cells with final concentration of 300 uM L-tryptophan. A small aliquot (2 mL/plate) of HeLa cells were set aside and were not treated with IFNγ, to serve as the Max-E control.
HeLa cells with and without IFNγ were dispensed to the respective wells of 384-well assay plates containing the compounds. The plates were incubated for about 48 hours at a 37° C., 5% CO2 incubator. Afterwards, 12 μL of 0.5 M methyl isonipecotate in dimethyl sulfoxide were added into each well and the plates were sealed and incubated at 37° C. without CO2 overnight. The plates were centrifuged for 1 min at 200×g. The resulting fluorescence was measured in a Spectramax plate reader (Molecular Devices) with a 400 nm excitation filter and a 510 nm emission filter.
The fluorescence intensity of each well was corrected for the background observed in wells with non-IFNγ-treated cells and was expressed as a fraction of the intensity observed in wells of IFNγ-treated cells and DMSO only. Potencies were calculated by linear least squares fit to the four parameter logistic IC50 equation.
Compounds disclosed herein generally have IC50 of about 0.1 nM to about 20,000 nM, or more specifically, about 1 nM to about 10,000 nM, or more specifically, about 5 nM to about 5,000 nM, or more specifically, about 10 nM to about 1,000 nM, or still more specifically, about 10 nM to about 500 nM.

IDO1, sequence (P14902 whole entry): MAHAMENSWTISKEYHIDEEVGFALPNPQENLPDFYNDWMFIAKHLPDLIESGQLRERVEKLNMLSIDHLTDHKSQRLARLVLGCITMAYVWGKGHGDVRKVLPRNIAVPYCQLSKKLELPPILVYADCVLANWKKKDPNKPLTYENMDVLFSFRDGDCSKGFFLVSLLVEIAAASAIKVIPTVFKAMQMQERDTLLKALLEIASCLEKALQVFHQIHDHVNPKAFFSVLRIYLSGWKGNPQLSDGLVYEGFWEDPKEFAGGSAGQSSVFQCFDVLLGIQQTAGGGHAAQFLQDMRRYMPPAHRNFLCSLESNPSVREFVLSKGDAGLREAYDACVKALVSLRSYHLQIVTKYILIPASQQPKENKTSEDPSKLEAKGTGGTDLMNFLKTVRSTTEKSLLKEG

IC50	Structure (SMILES)
6.4 nM	C[C@@H]1CN(C(=O)c2nn(CC(=O)N3CCC(c4cccc5ccccc45)CC3)c3c2CCC3)C[C@H](C)O1 [Example 69, 2-{3-[(2R,6S)-2,6-dimethylmorpholine-4-carbonyl]-5,6-dihydrocyclopenta[c]pyrazol-1(4H)-yl}-1-[4-(naphthalen-1-yl)piperidin-1-yl]ethan-1-one]
79.4 nM	C[C@@H]1CN(C(=O)c2nn(CC(=O)N3CCC(c4ccccc4)CC3)c3c2CCC3)C[C@H](C)O1 [Example 70, 2-{3-[(2R,6S)-2,6-dimethylmorpholine-4-carbonyl]-5,6-dihydrocyclopenta[c]pyrazol-1(4H)-yl}-1-(4-phenylpiperidin-1-yl)ethan-1-one]
107 nM	C[C@@H]1CN(C(=O)c2nn(CC(=O)N3CCC(c4ccccc4C(F)(F)F)CC3)c3c2CCC3)C[C@H](C)O1 [Example 71, 2-{3-[(2R,6S)-2,6-dimethylmorpholine-4-carbonyl]-5,6-dihydrocyclopenta[c]pyrazol-1(4H)-yl}-1-{4-[2-(trifluoromethyl)phenyl]piperidin-1-yl}ethan-1-one]
144 nM	C[C@@H]1CN(C(=O)c2nn(CC(=O)N3CCC(c4ccccc4)C(F)(F)C3)c3c2CCC3)C[C@H](C)O1 (stereo partly drawn) [Example 72, 1-(3,3-difluoro-4-phenylpiperidin-1-yl)-2-{3-[(2R,6S)-2,6-dimethylmorpholine-4-carbonyl]-5,6-dihydrocyclopenta[c]pyrazol-1(4H)-yl}ethan-1-one]
152 nM	C[C@@H]1CN(C(=O)c2nn(CC(=O)N3CCC(c4ccccc4C(F)(F)F)C3)c3c2CCC3)C[C@H](C)O1 (stereo partly drawn) [Example 73, 2-{3-[(2R,6S)-2,6-dimethylmorpholine-4-carbonyl]-5,6-dihydrocyclopenta[c]pyrazol-1(4H)-yl}-1-{3-[2-(trifluoromethyl)phenyl]pyrrolidin-1-yl}ethan-1-one]
170 nM	C[C@@H]1CN(C(=O)c2nn(CC(=O)N3CCCC(c4ccccc4)CC3)c3c2CCC3)C[C@H](C)O1 (stereo partly drawn) [Example 74, 2-{3-[(2R,6S)-2,6-dimethylmorpholine-4-carbonyl]-5,6-dihydrocyclopenta[c]pyrazol-1(4H)-yl}-1-(4-phenylazepan-1-yl)ethan-1-one]
195 nM	COc1ccccc1C1CCN(C(=O)Cn2nc(C(=O)N3C[C@@H](C)O[C@@H](C)C3)c3c2CCC3)CC1 [Example 75, 2-{3-[(2R,6S)-2,6-dimethylmorpholine-4-carbonyl]-5,6-dihydrocyclopenta[c]pyrazol-1(4H)-yl}-1-[4-(2-methoxyphenyl)piperidin-1-yl]ethan-1-one]
199 nM	C[C@@H]1CN(C(=O)c2nn(CC(=O)N3CCC(c4ccc5ccccc5c4)CC3)c3c2CCC3)C[C@H](C)O1 [Example 76, 2-{3-[(2R,6S)-2,6-dimethylmorpholine-4-carbonyl]-5,6-dihydrocyclopenta[c]pyrazol-1(4H)-yl}-1-[4-(naphthalen-2-yl)piperidin-1-yl]ethan-1-one]
233 nM	Cc1c(F)cccc1C1CCCN(C(=O)Cn2nc(C(=O)N3C[C@@H](C)O[C@@H](C)C3)c3c2CCC3)C1 (stereo partly drawn) [Example 77, 2-{3-[(2R,6S)-2,6-dimethylmorpholine-4-carbonyl]-5,6-dihydrocyclopenta[c]pyrazol-1(4H)-yl}-1-[3-(3-fluoro-2-methylphenyl)piperidin-1-yl] ethan-1-one]
346 nM	C[C@@H]1CN(C(=O)c2nn(CC(=O)N3CCC(c4ccccc4Cl)C3)c3c2CCC3)C[C@H](C)O1 (stereo partly drawn) [Example 78, 1-[3-(2-chlorophenyl)pyrrolidin-1-yl]-2-{3-[(2R,6S)-2,6-dimethylmorpholine-4-carbonyl]-5,6-dihydrocyclopenta[c]pyrazol-1(4H)-yl}ethan-1-one]
354 nM	C[C@@H]1CN(C(=O)c2nn(CC(=O)N3CC[C@@H](c4ccccc4)[C@@H](C)C3)c3c2CCC3)C[C@H](C)O1 [Example 79, 2-{3-[(2R,6S)-2,6-dimethylmorpholine-4-carbonyl]-5,6-dihydrocyclopenta[c]pyrazol-1(4H)-yl}-1-[(3R,4R)-3-methyl-4-phenylpiperidin-1-yl]ethan-1-one]
